# Tested on: human cervical cancer cell line HeLa
# Assay: Cell growth inhibition test against human cervical cancer cells
# Assay type: cell-based
# Conditions: compound concentration 20 μmol/L, 72 hours culture, read-out: inhibited the cell growth
# Method: As a cervical cancer cell line, a human cervical cancer cell line HeLa (DS Pharma Biomedical, Cat. No. EC93021013-F0) was used.
# The cell line was cultured under conditions of 37° C. and 5% carbon dioxide.
# The difference in absorbance in the well in which the cells were not treated with the compound was taken as 100%, and the difference in absorbance in the well in which the cells were not inoculated was taken as 0%, and the cell growth ratio (%) was calculated based on the difference in absorbance in the compound-treated group.
row,SMILES,inhibition at 20 µM [%]
1,"CCC(C)CC(C)CC(C)CC(C)/C=C(C)/C=C(/CC(C)C(=O)OC1C(=O)OC(C(=O)O)C1C(=O)O)C(=O)O (stereo not shown) [Compound 1, 4-{(4Z,6E)-4-Carboxy-2,6,8,10,12,14-hexamethylhexadec-4,6-dienoyloxy}-5-oxotetrahydrofuran-2,3-dicarboxylic Acid]",≥ 90
2,"CCC(C)CC(C)CC(C)CC(C)/C=C(C)/C=C(/CC(C)C(=O)OC1C(=O)OC(C(=O)OCOC(C)=O)C1C(=O)OCOC(C)=O)C(=O)OCOC(C)=O (stereo not shown) [Compound 27, Di(acetoxymethyl) 4-{(4Z,6E)-4-(acetoxymethoxycarbonyl)-2,6,8,10,12,14-hexamethylhexadec-4,6-dienoyloxy}-5-oxotetrahydrofuran-2,3-dicarboxylate]",≥ 90

# Same assay, conditions: compound concentration 200 μmol/L, 72 hours culture, read-out: inhibited the cell growth
row,SMILES,inhibition at 200 µM [%]
1,"CCC(C)CC(C)CC(C)CC(C)/C=C(C)/C=C(/CC(C)C(=O)OC1C(=O)OC(C(=O)OC)C1C(=O)OC)C(=O)OC (stereo not shown) [Compound 5, Dimethyl 4-{(4Z,6E)-4-(methoxycarbonyl)-2,6,8,10,12,14-hexamethylhexadec-4,6-dienoyloxy}-5-oxotetrahydrofuran-2,3-dicarboxylate]",≥ 90
2,"CCC(C)CC(C)CC(C)CC(C)/C=C(C)/C=C(/CC(C)C(=O)OC(C(=O)O)C(C(=O)OC)C(O)C(=O)OC)C(=O)OC (stereo not shown) [Compound 6, 4-Hydroxy-5-methoxy-3-(methoxycarbonyl)-2-{(4Z,6E)-4-(methoxycarbonyl)-2,6,8,10,12,14-hexamethylhexadec-4,6-dienoyloxy}-5-oxopentanoic Acid]",≥ 90
3,"CCC(C)CC(C)CC(C)CC(C)/C=C(C)/C=C(/CC(C)C(=O)OC(C(=O)OC)C(C(=O)OC)C(O)C(=O)OC)C(=O)OC (stereo not shown) [Compound 7, Trimethyl 1-hydroxy-3-{(4Z,6E)-4(methoxycarbonyl)-2,6,8,10,12,14-hexamethylhexadec-4,6-dienoyloxy}-propane-1,2,3-tricarboxylate]",≥ 90
4,"CCC(C)CC(C)CC(C)CC(C)/C=C(C)/C=C(/CC(C)C(=O)O)C(=O)OC(C)(C)C (stereo not shown) [Compound 8, (4Z,6E)-4-(tert-Butoxycarbonyl)-2,6,8,10,12,14-hexamethylhexadec-4,6-dienoic Acid]",≥ 90
5,"CCC(C)CC(C)CC(C)CC(C)/C=C(C)/C=C(/CC(C)C(=O)OCC(=O)O)C(=O)O (stereo not shown) [Compound 9, (2Z,4E)-2-{3-(Carboxymethoxy)-2-methyl-3-oxopropyl}-4,6,8,10,12-pentamethyltetradec-2,4-dienoic Acid]",≥ 90
6,"CCC(C)CC(C)CC(C)CC(C)/C=C(C)/C=C(/CC(C)C(=O)OC)C(=O)O (stereo not shown) [Compound 10, (2Z,4E)-2-(3-Methoxy-2-methyl-3-oxopropyl)-4,6,8,10,12-pentamethyltetradec-2,4-dienoic Acid]",≥ 90
7,"CCC(C)CC(C)CC(C)CC(C)/C=C(C)/C=C(/CC(C)C(=O)OCCC(=O)O)C(=O)O (stereo not shown) [Compound 11, (2Z,4E)-2-{3-(2-Carboxyethoxy)-2-methyl-3-oxopropyl}-4,6,8,10,12-pentamethyltetradec-2,4-dienoic Acid]",≥ 90
8,"CCC(C)CC(C)CC(C)CC(C)/C=C(C)/C=C(/CC(C)C(=O)CCCC(=O)O)C(=O)O (stereo not shown) [Compound 12, (2Z,4E)-2-{3-(3-Carboxypropyl)-2-methyl-3-oxopropyl}-4,6,8,10,12-pentamethyltetradec-2,4-dienoic Acid]",≥ 90
9,"CCC(C)CC(C)CC(C)CC(C)/C=C(C)/C=C(/CC(C)C(=O)CCCO)C(=O)O (stereo not shown) [Compound 13, (2Z,4E)-2-{3-(3-Hydroxypropyl)-2-methyl-3-oxopropyl}-4,6,8,10,12-pentamethyltetradec-2,4-dienoic Acid]",≥ 90
10,"CCC(C)CC(C)CC(C)CC(C)/C=C(C)/C=C(/CC(C)C(=O)O[C@@H](CC(=O)O)C(=O)O)C(=O)O (stereo partly drawn) [Compound 14, (2S)-2-{(4Z,6E)-4-Carboxy-2,6,8,10,12,14-hexamethylhexadec-4,6-dienoyloxy}succinic Acid]",≥ 90
11,"CCC(C)CC(C)CC(C)CC(C)/C=C(C)/C=C(/CC(C)C(=O)O[C@H]1CCOC1=O)C(=O)O (stereo partly drawn) [Compound 15, (2Z,4E)-4,6,8,10,12-Pentamethyl-2-[2-methyl-3-oxo-3-{(S)-2-oxotetrahydrofuran-3-yloxy}propyl]tetradec-2,4-dienoic Acid]",≥ 90
12,"CCC(C)CC(C)CC(C)CC(C)/C=C(C)/C=C(/CC(C)C(=O)OCC[C@H](O)C(=O)O)C(=O)O (stereo partly drawn) [Compound 16, (2Z,4E)-2-[3-{(S)-3-Carboxy-3-hydroxypropoxy}-2-methyl-3-oxopropyl]-4,6,8,10,12-pentamethyltetradec-2,4-dienoic Acid]",≥ 90
13,"CCOP(=O)(OCC)O[C@H](C(=O)O)[C@H](OC(=O)C(C)C/C(=C/C(C)=C/C(C)CC(C)CC(C)CC(C)CC)C(=O)O)C(=O)O (stereo partly drawn) [Compound 17, (2S,3S)-2-{(4Z,6E)-4-Carboxy-2,6,8,10,12,14-hexamethylhexadec-4,6-dienoyloxy}-3-(diethoxyphosphoryloxy)succinic Acid]",≥ 90
14,"CCC(C)CC(C)CC(C)CC(C)/C=C(C)/C=C(/CC(C)C(=O)[C@@H](CC)C(=O)O)C(=O)O (stereo partly drawn) [Compound 18, (2Z,4E)-2-[3-{(R)-1-Carboxypropyl}-2-methyl-3-oxopropyl]-4,6,8,10,12-pentamethyltetradec-2,4-dienoic Acid]",≥ 90
15,"CCC(C)CC(C)CC(C)CC(C)/C=C(C)/C=C(/CC(C)C(=O)C[C@@H](O)CO)C(=O)O (stereo partly drawn) [Compound 19, (2Z,4E)-2-[3-{(R)-2,3-Dihydroxypropyl}-2-methyl-3-oxopropyl]-4,6,8,10,12-pentamethyltetradec-2,4-dienoic Acid]",≥ 90
16,"CCC(C)CC(C)CC(C)CC(C)/C=C(C)/C=C(/CC(C)C(=O)O[C@@H]1CCOC1=O)C(=O)O (stereo partly drawn) [Compound 20, (2Z,4E)-4,6,8,10,12-Pentamethyl-2-[2-methyl-3-oxo-3-{(R)-2-oxotetrahydrofuran-3-yloxy}propyl]tetradec-2,4-dienoic Acid]",≥ 90
17,"CCC(C)CC(C)CC(C)CC(C)/C=C(C)/C=C(/CC(C)C(=O)[C@@H]1COC(=O)C1)C(=O)O (stereo partly drawn) [Compound 21, (2Z,4E)-4,6,8,10,12-Pentamethyl-2-[2-methyl-3-oxo-3-{(S)-5-oxotetrahydrofuran-3-yl}propyl]tetradec-2,4-dienoic Acid]",≥ 90
18,"CCC(C)CC(C)CC(C)CC(C)/C=C(C)/C=C(/CC(C)C(=O)OC(C(=O)O)C(=O)O)C(=O)O (stereo not shown) [Compound 22, 2-{(4Z,6E)-4-Carboxy-2,6,8,10,12,14-hexamethylhexadec-4,6-dienoyloxy}malonic Acid]",≥ 90
19,"CCC(C)CC(C)CC(C)CC(C)/C=C(C)/C=C(/CC(C)C(=O)OC(C(=O)O)C(C(=O)O)C(=O)O)C(=O)O (stereo not shown) [Compound 23, 2-{(4Z,6E)-4-Carboxy-2,6,8,10,12,14-hexamethylhexadec-4,6-dienoyloxy}ethane-1,1,2-tricarboxylic Acid]",≥ 90
20,"CCC(C)CC(C)CC(C)CC(C)/C=C(C)/C=C(/CC(C)C(=O)OCC(CC(=O)O)C(=O)O)C(=O)O (stereo not shown) [Compound 24, 2-[{(4Z,6E)-4-Carboxy-2,6,8,10,12,14-hexamethylhexadec-4,6-dienoyloxy}methyl]succinic Acid]",≥ 90
21,"CCC(C)CC(C)CC(C)CC(C)/C=C(C)/C=C(/CC(C)C(=O)OCOC(C)=O)C(=O)O (stereo not shown) [Compound 28, (2Z,4E)-2-{3-(Acetoxymethoxy)-2-methyl-3-oxopropyl}-4,6,8,10,12-pentamethyltetradec-2,4-dienoic Acid]",≥ 90
22,"CCC(C)CC(C)CC(C)CC(C)/C=C(C)/C=C(/CC(C)C(=O)OCOC(C)=O)C(=O)OCOC(C)=O (stereo not shown) [Compound 29, Bis(acetoxymethyl) (Z)-2-methyl-4-{(E)-2,4,6,8,10-pentamethyldodec-2-enylidene}pentanedioate]",≥ 90
23,"CCC(C)CC(C)CC(C)CC(C)/C=C(C)/C=C(/CC(C)C(=O)OC(C(=O)O)C(C(=O)OCOC(C)=O)C(O)C(=O)OCOC(C)=O)C(=O)O (stereo not shown) [Compound 30, (2Z,4E)-2-[3-{4-(Acetoxymethoxy)-2-{(acetoxymethoxy)carbonyl}-1-carboxy-3-hydroxy-4-oxobutoxy}-2-methyl-3-oxopropyl]-4,6,8,10,12-pentamethyltetradec-2,4-dienoic Acid]",≥ 90

# — patent US9260459B2, “4,6-hexadecadiene-2,4-dicarboxylic acid derivative” (Kyowa Hakko Kirin Co., Ltd., priority 2012, dated 2016)
